The values below come from patent US12029716B2, “Derivatives of korormicin useful as antibiotics” (Viotika Life Sciences Inc., priority 2015, dated 2024).

The target of series [1] is Na^+-NQR. The note with it: cited from earlier work.
Series [2] addresses T1, Na^+-NQR (Vibrio cholerae serotype O1, UniProt Q9KPS2).
T1 construct: being placed in its native membrane; endogenous in cells; sub-bacterial membrane vesicles made by French press
Put plainly: Na+-NQR activity (dNADH oxidation) in sub-bacterial V. cholerae vesicles. Type of series: biochemical.

The subject of series [3] is Chlamydia trachomatis. Put plainly: C. trachomatis infection of HeLa cells (chlamydial inclusions, immunocytochemistry). Type of series: cell-based. The note with it: for IC50: Chlamydia trachomatis, HeLa. The procedure:
Chlamydia trachomatis (C. trachomatis) propagation and treatment were carried out as follows. C. trachomatis was propagated in HeLa cells. The titer of C. trachomatis was determined in cyclohexamide-treated HeLa cells, and concentrations used were expressed as inclusion forming units (IFU) per mL.
Assessment of the level of infection was determined as follows. HeLa cells were seeded on glass coverslips in 24-well plates at 3×10^4 cells/well and inoculated with C. trachomatis and then treated with antibiotic (or other compounds of interest). After 48 hours, the infected cells were fixed with 100% methanol and then incubated with anti-Chlamydia monoclonal antibody. Inclusion bodies were visualized by staining with FITC-conjugated secondary antibody and DAPI as counterstaining. The samples were examined by a fluorescence microscopy. Number of inclusions was calculated per 100 cells.
Assessment of antichlamydial activity of Korormicin (Scheme shown in FIG. 1) and PEG-2 (Scheme shown in FIG. 2) were performed as follows. Cells were infected with C. trachomatis and treated with different concentrations of antibiotic of choice. After 48 h of C. trachomatis was collected (P1) and used to infect fresh cells. Subsequent collections of C. trachomatis were used to obtain P2, P3, P4 and P5 stocks of C. trachomatis. Dilution of C. trachomatis used to infect cells after treatment with PEG-2 had to be minimized in order to visualize inclusions. Last passage collection of C. trachomatis (P5) of Korormicin treatment and all collected of passages of C. trachomatis treated with PEG-2 were used to establish infectivity of treated Chlamydia (Scheme shown in FIG. 3).
For MIC50 (Minimal Concentration of the antibiotic that inhibits formation of chlamydial inclusions on 50%) determination HeLa cells were grown in 24-well or 96 well plates overnight prior to chlamydial inoculation. Elementary bodies were applied to the cells in small volume of SPG (0.22 M sucrose, 8.6 mM Na2HPO4, 3.8 mM KH2PO4, 5 mM glutamic acid, 0.2 μm-filtered, pH 7.4) and after 2 hours of incubation unattached elementary bodies were removed and infected cells were treated with different concentration of antibiotics in Dulbecco's modified Eagle's medium (DMEM, Invitrogen) with 5% fetal bovine serum (FBS, Invitrogen) in the presence of cycloheximide (1.0 μg/ml). After 42 h inclusions were visualized by immunocytochemistry.
To determent chlamydicidal effect of Korormicin (Scheme 1) and PEG-2 (Scheme 2) Hela cells were infected with C. trachomatis and treated with different concentrations of antibiotics. After 48 h of C. trachomatis was collected (P1) and used to infect fresh cells. Subsequent collections of C. trachomatis were used to obtain P2, P3, P4 and P5 stocks of C. trachomatis. Dilution of C. trachomatis used to infect cells after treatment with PEG-2 had to be minimized in order to visualize inclusions. (See Scheme 2 below). Last passage collection of C. trachomatis (P5) of Korormicin treatment and all collected of passages of C. trachomatis treated with PEG-2 were used to establish infectivity of treated C. trachomatis. Minimal chlamydicidal concentration (MCC2) for Korormicin, PEG-2 and PEG-2S was calculated after 2 passages of infection with treatment and reflect inhibition of infection for more than 90%. In all experiments inclusions were visualized by immunocytochemistry.
Cells were seeded on glass coverslips in 24-well plates (2-4×10^4 cells/well) or on glass-bottom 96 well plates (10^4 cells/well), and after overnight inoculated with C. trachomatis. After 42 hours, the infected cells were fixed with 90% acetone (or 100% methanol in case of 96 well plates) and then incubated with anti-Chlamydia antibody (Thermo Fisher Scientific). Alexa Fluor 488-conjugated anti-rabbit IgG (Molecular Probes) was used as secondary antibody. DAPI staining solution (300 nM) was added to the coverslips to identify nuclei. […]

Series [4] concerns primary Vascular Smooth Muscle cells. Nature of the series: Cell toxicity / proliferation assay, primary vascular smooth muscle cells. It counts as cell-based, human. As for the experimental part:
(§1) Cell Toxicity Assay was performed as follows. HeLa, HEK293 and primary VSM cells were seeded at 5×10^3 cells/well in 96-well plates and incubated with Korormicin, PEG-2 or homoserine lactones in DMEM containing 1% fetal bovine serum (FBS; Invitrogen Corp.). After 48 hours, the number of living cells was determined by a colorimetric enzyme assay, based on a cytoplasmic enzyme activity present in viable cells.
Cells were seeded at 5×10^3 cells/well in 96-well plates and incubated with C. trachomatis in DMEM containing 1% fetal bovine serum (FBS; Invitrogen Corp.). After 48 hours, the number of living cells was determined by a colorimetric enzyme assay (CellTiter 96 Cell Proliferation Assay; Promega Corporation, Madison, WI) based on a cytoplasmic enzyme activity present in viable cells. (Cory et al. Use of an aqueous soluble tetrazolium/formazan assay for cell growth assays in culture. Cancer Commun. 1991; 3:207-212). The absorbance of a formazan product in tissue culture media was measured at 500 nm using a microplate reader.

Series [5] has as its system HeLa cell line. Nature of the series: Cell toxicity assay, HeLa cells. Type of series: cell-based, human. The procedure: as §1
The nature of series [6]: physchem. The note with it: organic solvent or mixture. Type of series: physicochemical.
The mark [7] stands for this setting: cell culture experimental model, read-out: IC50(Chl), half-maximal inhibition of the proliferation of Chlamydia trachomatis.

Molecules are shown by their SMILES. Several values for one entry are separate records, joined by “and”; a condition that tells them apart may be missing. Equal entries are not always repeated. Where two headings read alike, the source gives them in different places.

In general, Ki refers to the dissociation constant of the complex between target and ligand, obtained from inhibition or displacement. Turning to `CCCCCCCc1cc(O)c2ccccc2[n+]1[O-]` [HQNO, 2-n-heptyl-4-hydroxyquinoline N-oxide], in series [1] (read-out: Ki for Na+-NQR), the Ki was 300 nM. For the same molecule, the IC50 in series [2] was found to be 130 nM.
`CCCCCCCC[C@H]1O[C@H]1C/C=C/C=C\[C@H](O)CC(=O)NC1=C[C@](C)(CC)OC1=O` [Korormicin, (3R,4Z,6E)-N-[(5S)-5-Ethyl-5-methyl-2-oxo-2,5-dihydro-3-furanyl]-3-hydroxy-8-[(2S,3R)-3-octyl-2-oxiranyl]-4,6-octadienamide]: the Ki in series [1] (isolated Na+-NQR, listed as korormicin, read-out: inhibitor constant (Ki) of quinone reduction by Na+-NQR) was about 0.08 nM; in series [1] (isolated Na+-NQR, read-out: inhibitor constant (Ki) of quinone reduction by Na+-NQR), 0.082 nM; in series [1] (preparations of isolated enzyme, read-out: Ki), about 0.08 nM. In addition, the “efficacy against C. trachomatis infection (in words)” value in series [3] was “effective”. For the same molecule, the “number of inclusions, of control” value in series [3] (5 consecutive treatments, 15 μM) was 4.8%. The IC50 in series [3] (read-out: MIC501, Minimal Inhibitory Concentration after the treatment, first treatment) is 8.28 mg/L; in series [3] (read-out: MIC501, Minimal Inhibitory Concentration after the treatment, first treatment, 50% inhibition of inclusion formation), 18000 nM; in series [3] (read-out: MIC502, Minimal Inhibitory Concentration after the second treatment, second treatment) it was 10 µM and 4.6 µg/mL. Besides, the “concentration effective against C. trachomatis” value in series [3] (cell culture models) was in the range of 10 to 20 µM. Also, the “number of chlamydial inclusions, of control” value in series [3] (five consecutive treatments, 20 μM) is “less than 2%”. Besides, in series [4] (VSMC proliferation, 5 to 15 μM), the “lowering of the cell titer” value is about 10%. In series [4] (primary Vascular Smooth Muscle cells), the “toxicity to primary cells (in words)” value is on record as “toxic”.
On to `CCCCCCCCCC(=O)CC(=O)N[C@H]1CCOC1=O` [N-3-oxo-dodecanoyl-L-Homoserine lactone], for which the “Cytotoxicity on HeLa cell line” value in series [5] (12.5 μM), in series [5] (25 μM), in series [5] (50 μM) and in series [5] (100 μM) was “yes” each time. Further, the “toxicity to human cells (in words)” value in series [5] (HeLa) is given as “highly toxic”.
For the molecule `CCCC(=O)N[C@H]1CCOC1=O` [N-butyryl-L-Homoserine lactone], the Anti-Chlamydial effect entry in series [3] (12.5 μM) was “no”; in series [3] (25 μM), “no”; in series [3] (50 μM), “No”; in series [3] (100 μM) it was “no”. Also, the “Cytotoxicity on HeLa cell line” value in series [5] (12.5 μM), in series [5] (25 μM), in series [5] (50 μM) and in series [5] (100 μM) was “no” throughout.
`CCCCCCCCCC(=O)N[C@H]1CCOC1=O` [N-decanoyl-L-Homoserine lactone]: the Anti-Chlamydial effect result in series [3] (12.5 μM), in series [3] (25 μM), in series [3] (50 μM) and in series [3] (100 μM) was “no” in each case. For the same molecule, the “Cytotoxicity on HeLa cell line” value in series [5] (12.5 μM), in series [5] (25 μM), in series [5] (50 μM) and in series [5] (100 μM) was “no” each time.
With `CCCCCC(=O)N[C@H]1CCOC1=O` [N-hexanoyl-L-Homoserine lactone], the Anti-Chlamydial effect result in series [3] (12.5 μM) is “no”; in series [3] (25 μM), “no”; in series [3] (50 μM) it was “No”; in series [3] (100 μM) it was “no”. Also, the “Cytotoxicity on HeLa cell line” value in series [5] (12.5 μM), in series [5] (25 μM), in series [5] (50 μM) and in series [5] (100 μM) was “no” each time.
For orientation: solubility means the dissolved amount per volume that the medium holds. For the molecule `CC[C@@]1(C)C=C(NC(=O)C[C@@H](O)/C=C\C=C\CCCCCCN(C)C(=O)OC(C)(C)C)C(=O)O1` [PEG-6(Boc)], the solubility in series [6] was over 50 mM. The IC50 in series [3] (setting [7]) was 960 nM.
Taken in the same sequence, the figures for `CC[C@@]1(C)C=C(NC(=O)C[C@@H](O)/C=C\I)C(=O)O1` [PEG-10] were over 50 mM and 670 nM.
In the case of `CCCCCCCCCCC[C@H](O)CC(=O)NC1=C[C@](C)(CC)OC1=O` [PEG-11], the solubility in series [6] was over 50 mM. Besides, the IC50 in series [3] (setting [7]) turned out to be 630 nM.
The corresponding values for `CCCCCCC/C=C/C=C\CCC(=O)NC1=C[C@](C)(CC)OC1=O` [PEG-14] are over 50 mM and 1200 nM.
